Consider 25 molecules from patent US10669283B2, “Compound and pharmacologically acceptable salt thereof” (MEIJI SEIKA PHARMA CO., LTD., priority 2016, dated 2020).

SMILES strings stand for the structures.

The first assay has as its system PDE4. Nature of the assay: PDE4 inhibition, scintillation proximity assay (SPA).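 As to PDE4 Inhibitory Activity (concentration for the inhibition rate of 50%): A below 100 nM B 100 to below 1000 nM C 1000 nM or more.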 It is filed as biochemical. Particulars: scintillation proximity assay (SPA); evaluated as classes A, B, C; read-out: PDE4 Inhibitory Activity (concentration for the inhibition rate of 50%). Put shortly:
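Compound pre-diluted 1:10 in 50 mM Tris-HCl pH 7.4, 8.3 mM MgCl2, 1.7 mM EGTA, 3 mg/mL BSA, then incubated with PDE4 and [2,8-3H]-cAMP for 120 min at room temperature. Product captured on ZnSO4-containing YSi-SPA beads for 15 min; radioactivity counted against no-enzyme blank and DMSO control.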
Background: In a scintillation proximity assay essentially only radioactivity close to the scintillant gives light.
On to `CC(=O)Nc1ccc(-c2nccs2)c2oc(N3CC4CC(C3)N4)nc12` [Example 35, N-(2-(3,6-diazabicyclo[3.1.1]heptan-3-yl)-7-(thiazol-2-yl)benzo[d]oxazol-4-yl)acetamide], for which the IC50 was 0.1 to 1 µM. `CC(C)(O)COC(c1ccc(-c2cscn2)c2oc(N3CC4CC(C3)N4)nc12)C(F)(F)F` (stereo not shown) [Example 284, 1-(1-(2-(3,6-Diazabicyclo[3.1.1]heptan-3-yl)-7-(thiazol-4-yl)benzo[d]oxazol-4-yl)-2,2,2-trifluoroethoxy)-2-methylpropan-2-ol]: the IC50 is below 0.1 µM. The same measure, in the same setting: then `CCOC(=O)c1cc(-c2nccs2)c2oc(N3CC4CCCC(C3)N4)nc2c1OC(F)(F)F` [Example 188, Ethyl 2-(3,9-diazabicyclo[3.3.1]nonan-3-yl)-7-(thiazol-2-yl)-4-(trifluoromethoxy)benzo[d]oxazole-5-carboxylate], with below 0.1 µM; and `CC(O)c1cc(-c2nccs2)c2oc(N3CC4CC(C3)N4)nc2c1C(F)(F)F` (stereo not shown) [Example 182, 1-(2-(3,6-Diazabicyclo[3.1.1]heptan-3-yl)-7-(thiazol-2-yl)-4-(trifluoromethyl)benzo[d]oxazol-5-yl)ethan-1-ol], with below 0.1 µM.

As to `CCOC(c1cc(-c2nccs2)c2oc(N3CC4CC(C3)N4)nc2c1)C(F)(F)F` (stereo not shown) [Example 150, 2-(3,6-Diazabicyclo[3.1.1]heptan-3-yl)-5-(1-ethoxy-2,2,2-trifluoroethyl)-7-(thiazol-2-yl)benzo[d]oxazole], the IC50 is below 0.1 µM. Turning to `Cc1ccc(-c2nccs2)c2oc(N3CC4CCC(C3)N4)nc12` [Example 25, 2-(3,8-Diazabicyclo[3.2.1]octan-3-yl)-4-methyl-7-(thiazol-2-yl)benzo[d]oxazole], the IC50 is below 0.1 µM. Turning to `FC(F)(F)Oc1ccc(-c2nccs2)c2oc(N3CC4CCC(C3)N4)nc12` [Example 28, 2-(3,8-Diazabicyclo[3.2.1]octan-3-yl)-7-(thiazol-2-yl)-4-(trifluoromethoxy)benzo[d]oxazole], the IC50 was below 0.1 µM. In the case of `OC(c1cc(-c2nccs2)c2oc(N3CC4CC(C3)N4)nc2c1OC(F)(F)F)C(F)F` (stereo not shown) [Example 292, 1-(2-(3,6-Diazabicyclo[3.1.1]heptan-3-yl)-7-(thiazol-2-yl)-4-(trifluoromethoxy)benzo[d]oxazol-5-yl)-2,2-difluoroethan-1-ol], the IC50 is below 0.1 µM. On to `c1csc(-c2cc(CN3CCOCC3)cc3nc(N4CC5CCC(C4)N5)oc23)n1` [Example 168, 2-(3,8-Diazabicyclo[3.2.1]octan-3-yl)-5-(morpholinomethyl)-7-(thiazol-2-yl)benzo[d]oxazole], for which the IC50 was below 0.1 µM. On the same count and under the same terms, the result for `COC(C)c1cc(-c2nccs2)c2oc(N3CC4CCC(C3)N4)nc2c1` (stereo not shown) [Example 110, 2-(3,8-Diazabicyclo[3.2.1]octan-3-yl)-5-(1-methoxyethyl)-7-(thiazol-2-yl)benzo[d]oxazole] reads below 0.1 µM; that for `Oc1cc(-c2nccs2)c2oc(N3CC4CCCC(C3)N4)nc2c1` [Example 65, 2-(3,9-Diazabicyclo[3.3.1]nonan-3-yl)-7-(thiazol-2-yl) benzo[d]oxazol-5-ol], below 0.1 µM. As for `COC(C)(C)c1cc(-c2nccs2)c2oc(N3CC4CC(C3)N4)nc2c1` [Example 174, 2-(3,6-Diazabicyclo[3.1.1]heptan-3-yl)-5-(2-methoxypropan-2-yl)-7-(thiazol-2-yl)benzo[d]oxazole], the IC50 was below 0.1 µM.

Regarding `OCC(F)(F)OC(c1ccc(-c2nccs2)c2oc(N3CC4CC(C3)N4)nc12)C(F)(F)F` (stereo not shown) [Example 258, 2-(1-(2-(3,6-Diazabicyclo[3.1.1]heptan-3-yl)-7-(thiazol-2-yl)benzo[d]oxazol-4-yl)-2,2,2-trifluoroethoxy)-2,2-difluoroethan-1-ol], the IC50 was below 0.1 µM. As to `COC(C)(C)COC(c1ccc(-c2nccs2)c2oc(N3CC4CC(C3)N4)nc12)C(F)(F)F` (stereo not shown) [Example 281, 2-(3,6-Diazabicyclo[3.1.1]heptan-3-yl)-7-(thiazol-2-yl)-4-(2,2,2-trifluoro-1-(2-methoxy-2-methylpropoxy)ethyl)benzo[d]oxazole], the IC50 is below 0.1 µM. The same measure, in the same setting: then `COC(c1ccc(-c2nccs2)c2oc(N3CC4CC(C3)N4)nc12)C(F)(F)F` (stereo not shown) [Example 123, 2-(3,6-Diazabicyclo[3.1.1]heptan-3-yl)-7-(thiazol-2-yl)-4-(2,2,2-trifluoro-1-methoxyethyl)benzo[d]oxazole], with below 0.1 µM. Take `Cc1ccc(-c2nccs2)c2oc(N3CC4CC(C3)N4)nc12` [Example 26, 2-(3,6-Diazabicyclo[3.1.1]heptan-3-yl)-4-methyl-7-(thiazol-2-yl)benzo[d]oxazole]: the IC50 is below 0.1 µM.

On to `CC(C)(O)C(F)(F)Oc1ccc(-c2ncco2)c2oc(N3CC4CC(C3)N4)nc12` [Example 290, 1-((2-(3,6-Diazabicyclo[3.1.1]heptan-3-yl)-7-(oxazol-2-yl)benzo[d]oxazol-4-yl)oxy)-1,1-difluoro-2-methylpropan-2-ol], for which the IC50 was below 0.1 µM. Regarding `OC1(COC(c2ccc(-c3nccs3)c3oc(N4CC5CC(C4)N5)nc23)C(F)(F)F)CC1` (stereo not shown) [Example 232, 1-((1-(2-(3,6-Diazabicyclo[3.1.1]heptan-3-yl)-7-(thiazol-2-yl)benzo[d]oxazol-4-yl)-2,2,2-trifluoroethoxy)methyl)cyclopropan-1-ol], the IC50 was below 0.1 µM. `CCOC(=O)c1cc(-c2nccs2)c2oc(N3CC4CCCC(C3)N4)nc2c1` [Example 89, Ethyl 2-(3,9-diazabicyclo[3.3.1]nonan-3-yl)-7-(thiazol-2-yl) benzo[d]oxazole-5-carboxylate]: the IC50 was below 0.1 µM. Take `CC(O)(c1ccc(-c2nccs2)c2oc(N3CC4CC(C3)N4)nc12)C(F)F` (stereo not shown) [Example 126, 2-(2-(3,6-Diazabicyclo[3.1.1]heptan-3-yl)-7-(thiazol-2-yl)benzo[d]oxazol-4-yl)-1,1-difluoropropan-2-ol]: the IC50 is below 0.1 µM. Same read-out and setting: then `CC(O)C(F)(F)Oc1ccc(-c2nccs2)c2oc(N3CC4CC(C3)N4)nc12` (racemic) [Example 250, 1-((2-(3,6-Diazabicyclo[3.1.1]heptan-3-yl)-7-(thiazol-2-yl)benzo[d]oxazol-4-yl)oxy)-1,1-difluoropropan-2-ol], with below 0.1 µM; and `OC1CCC(Oc2ccc(-c3nccs3)c3oc(N4CC5CC(C4)N5)nc23)CC1` (stereo not shown) [Example 305, 4-((2-(3,6-Diazabicyclo[3.1.1]heptan-3-yl)-7-(thiazol-2-yl)benzo[d]oxazol-4-yl)oxy)cyclohexan-1-ol], with below 0.1 µM.

The same assay, now with this note: scintillation proximity assay; class symbols; read-out: PDE4 Inhibitory Activity.
`CN(CCO)S(=O)(=O)c1ccc(-c2nccs2)c2oc(N3CC4CC(C3)N4)nc12` [Example 389, 2-(3,6-diazabicyclo[3.1.1]heptan-3-yl)-N-(2-hydroxyethyl)-N-methyl-7-(thiazol-2-yl)benzo[d] oxazole-4-sulfonamide]: the IC50 is below 0.1 µM. On to `CN(C)S(=O)(=O)c1ccc(-c2nccs2)c2oc(N3CC4CC(C3)N4)nc12` [Example 388, 2-(3,6-diazabicyclo[3.1.1]heptan-3-yl)-N,N-dimethyl-7-(thiazol-2-yl)benzo [d]oxazole-4-sulfonamide], for which the IC50 was below 0.1 µM. On the same count and under the same terms, then `O=C(NO)c1ccc(-c2nccs2)c2oc(N3CC4CC(C3)N4)nc12` [Example 367, 2-(3,6-diazabicyclo[3.1.1]heptan-3-yl)-N-hydroxy-7-(thiazol-2-yl)benzo[d] oxazole-4-carboxamide], with below 0.1 µM.
